From US20060276440A1, “Treatment of inflammatory disorders” (priority 2005, published 2006)
Entries after “also recorded” stand apart in the source; their conditions may differ. Like-named read-outs stand apart in the source and are kept apart here.

Assays:
[1] = system: MMP-13; experiment: IL-1/OSM-stimulated pro-MMP-13 production in SW-1353 cells (ELISA); format: cell-based, human; conditions: Homo sapiens
Excerpt: To test the compounds identified in the preliminary reporter (luciferase) activity […]® line 4A1 screen for inhibition of OSM signaling in a more physiologically relevant environment, a human cell line involved in an inflammatory disease was adapted. The human cartilage cell line SW-1353 was selected.
In the human cartilage cell line SW-1353, while IL-1 is believed to activate expression of collagenases to a small degree and OSM is believed to have no effect on collagenase expression, a combination of IL-1 and OSM is believed to lead to a synergistic activation of collagenases to much higher levels (S. Cowell et al., Biochem J 331 (Pt 2), 453 (Apr. 15, 1998). Regulation of MMP-13 in SW-1353 cells is, therefore, believed to provide a biomarker which can be used to monitor IL-1/OSM-mediated signal transduction events in secondary assays.
(§1) The same supernatants of culture media used in the primary screen were assayed for IL-1/OSM-stimulated pro-MMP-13 production and MMP-2 production by enzyme-linked immunosorbent assay (ELISA).
(§2) For matrix metalloproteinase (MMP) measures, SW1353 cells were grown to confluence in 24 well plates, washed in DMEM (with Ham's F12) and placed in 500 ul of serum free DMEM/F-12 with 0.2% lactalbumin hydrosylate with and without OsM/IL-1. After 24 hrs, supernatants were collected and the amounts of proMMP13, totalMMP2, and proMMP1 were measured using Quantikine® ELISA kit for human MMPs (R & D systems, Minneapolis, Minn.). All MMP measures were normalized to viable cell numbers based on a tetrazolium (MTS) colorimetric measure (Promega, Madison, Wis.).

[2] = system: MMP-2; experiment: MMP-2 production in SW1353 cells (ELISA, control); format: cell-based, human
Method: MMP-2 production can be used as control for the potential side-effects of compounds. This is because MMP-2 levels are not believed to change in response to IL-1/OSM.
as §1, §2
Multiple control assays were performed to investigate the selectivity of CA4 action. Matrix metalloproteinase-2 (MMP-2) production in SW1353 cells was tested. Mutation of MMP-2 causes a multicentric osteolysis and arthritis syndrome (Martignetti et al., Nat Genet 28, 261-265 (2001) the entire contents of which are incorporated herein by reference), and theoretically its expression should not be affected in treating RA. CA4 at approximately 110 nM had no effect on production of MMP-2 (FIG. 12E). An A549 Sentinel line that responded to TGF-β was then tested.

[3] = system: p38, JNK, ERK1/2; experiment: p38, JNK, ERK1/2 phosphorylation in SW1353 cells (FACS, immunostaining); format: cell-based, human
Method: SW1353 cells were seeded and treated as described above. For the flow cytometric analysis of intracellular phopho-proteins, trypsinized SW1353 cells were fixed in 1.5% formaldehyde at room temperature (RT), and permeabilized in ice cold methanol for minimum of 10 minutes. After 2× wash in wash buffer (D-PBS, with 1% FBS), cells were stained with phospho-specific antibodies (5 ug/ml final) for 20 minutes, washed 2× in wash buffer, followed by 20 minutes incubation with phycoerythrin-conjugated anti-mouse IgG (10 ug/ml final). Following 2× wash in wash buffer, cells were analyzed by flow cytometry.
For immunohistochemistry of intracellular phospho-proteins, fixation and permeabilization conditions were identical to the ones used for flow cytometric analysis. For the visualization of the phosphor-specific proteins, ImmPRESS Universal Antibody kit (Vector Laboratories, Burlingame, Calif.) was used.
The cellular and molecular mechanisms by which CA4 repressed pro-MMP-13 production, using SW1353 as the model system were investigated. […] The pathways that mediate OSM and IL-1 signal transduction were then examined. Using inhibitors that target key components of the pathways, it was shown that JAK/STAT, p38, JNK, and NF-κB pathways were important for OSM/IL-1-stimulated pro-MMP-13 production (FIG. 13B-E), but not ERK or Cox1/2 pathways (data not shown). […]

[4] = Plasma concentration of CA4 from osmotic pump by LC/MS; format: in vivo, mouse; conditions: 33 mg/ml dose by the pump (16 mg/kg/day), day 3 and 7
Method: CA4 at 50, 33, and 0 (vehicle) mg/ml in osmotic pumps (0.5 ul/hr; equivalent to 25, 16 and 0 mg/kg/day) was administered subcutaneously to murine collagen-induced arthritis model usin ghte B10RIII strain 12 days after the 1st immunization (day 0) of type II collagen. The 33 mg/ml dose by the pump produced a plasma concentration of CA4 of approximately 30 nM on day 3 and 7 as measured by LC/MS. Dexamethasone at 0.2 mg/kg was injected daily subcutaneously as a positive control.

SMILES: COc1ccc(/C=C\c2cc(OC)c(OC)c(OC)c2)cc1O [Combretastatin A4 (1), (Z)-5-(3,4,5-trimethoxystyryl)-2-methoxyphenol]
- IC50 ([1]; SW1353, SW-1353, IL-1/OSM-stimulated, secondary screen (Example 2), read-out: IC50, inhibition of MMP-13 (pro-MMP-13) production): 2 nM
- IC50 ([1]; SW1353 cells, mean (Examples 8, 10), read-out: IC50 values by pro-MMP-13 (OSM/IL-1-mediated production)): 5.6 ± 1.3 nM
- effect on production of MMP-2 ([2]; SW1353, CA4 at approximately 110 nM, FIG. 12E, listed as CA4): no effect; also recorded: failed to inhibit MMP-2 production
- inhibitory effect on MMP-13 expression compared to MMP-2 expression ([2]; SW-1353, FIG. 5, listed as 1): greater inhibitory effects on MMP-13 expression compared to MMP-2 expression; also recorded: preferentially inhibit MMP-13 expression compared to MMP-2 expression
- p38 or JNK phosphorylation ([3]; 20 nM, FACS or immunostaining): Nor was p38 or JNK phosphorylation affected
- JNK (pT183/pY185) and ERK1/2 (pT202/pY204) phosphorylation ([3]; CA4 (20 nM) 2 hrs pretreatment, IL-1/OSM 15 minutes, data not shown): not affected
- plasma concentration [4]: approximately 30 nM
